According to patent US20220259593A1, “CONTROL OF MAMMALIAN GENE DOSAGE USING CRISPR” (The Regents of the University of California, priority 2019, published 2022):

Test system: K562 CRISPRi cells
Experiment: Perturb-seq pooled growth measurement (sgRNA counts, growth phenotype γ, relative activity)
Format: cell-based, human
Settings: sequencing read counts; for Perturb-seq pooled growth sgRNA counts, d5: 5 days of growth (day seven after transduction); for Perturb-seq pooled growth sgRNA counts, d10: 10 days of growth (day twelve after transduction); for Perturb-seq pooled growth sgRNA counts, T0: T0 = day two after transduction
How it was run: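 sgRNA abundance was sequenced from genomic DNA of the same transduced population sampled on days two, seven and twelve. Phenotype γ compares normalized day seven and twelve counts with day two. Day-seven values (five days of growth) define relative sgRNA activity.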

Row | Substance | Perturb-seq pooled growth sgRNA counts, d5 | Perturb-seq pooled growth sgRNA counts, d10 | Perturb-seq pooled growth sgRNA counts, T0
1 | RPS18_+_33239917.23-P1P2_01: sgRNA targeting RPS18, GCTGCAATGCCGCTGGATCA, SEQ ID NO: 41 (listed as DNA, chemistry not fully specified) | 2658 | 2571 | 5202
2 | GATA1_−_48645022.23-P1P2_00: sgRNA targeting GATA1, GTGAGCTTGCCACATCCCCA, SEQ ID NO: 119 (listed as DNA, chemistry not fully specified) | 955 | 757 | 5712
3 | RPS15_−_1438413.23-P1P2_02: sgRNA targeting RPS15, GACCAAGGCGATCTCTTCTG, SEQ ID NO: 62 (listed as DNA, chemistry not fully specified) | 3113 | 3548 | 5051
4 | POLR1D_+_28196016.23-P1_01: sgRNA targeting POLR1D, GGGAAGCCAGGACCGACCGA, SEQ ID NO: 76 (listed as DNA, chemistry not fully specified) | 4460 | 2528 | 12679
5 | MTOR_+_11322547.23-P1P2_06: sgRNA targeting MTOR, GGGCAGGGGGGCTGAAGCGG, SEQ ID NO: 149 (listed as DNA, chemistry not fully specified) | 3358 | 3174 | 4142
6 | GNB2L1_+_180670873.23-P1P2_07: sgRNA targeting GNB2L1, GTGCAAGGCGGGGGCAGGAG, SEQ ID NO: 58 (listed as DNA, chemistry not fully specified) | 8322 | 8738 | 9894
7 | DUT_+_48624411.23-P1P2_00: sgRNA targeting DUT, GCGAGCGAGGAGACCACCGG, SEQ ID NO: 110 (listed as DNA, chemistry not fully specified) | 3755 | 1570 | 14025
8 | RAN_+_131356438.23-P1P2_04: sgRNA targeting RAN, GGCGGTCGCGGCGCTTAGGG, SEQ ID NO: 72 (listed as DNA, chemistry not fully specified) | 11409 | 14870 | 6001
9 | DUT_+_48624411.23-P1P2_10: sgRNA targeting DUT, GCGAGCGAGGAGACCAACGG, SEQ ID NO: 114 (listed as DNA, chemistry not fully specified) | 5403 | 4466 | 6538
10 | MTOR_+_11322547.23-P1P2_00: sgRNA targeting MTOR, GGGCAGGGGGCCTGAAGCGG, SEQ ID NO: 146 (listed as DNA, chemistry not fully specified) | 6328 | 3144 | 17632
11 | GINS1_−_25388381.23-P1P2_14: sgRNA targeting GINS1, GGACTAGAACGAAAGGAGCG, SEQ ID NO: 97 (listed as DNA, chemistry not fully specified) | 5833 | 6093 | 6443
12 | RPS15_−_1438413.23-P1P2_07: sgRNA targeting RPS15, GACCAAAGCGGTCTCTTCTG, SEQ ID NO: 61 (listed as DNA, chemistry not fully specified) | 3595 | 4631 | 6337
13 | SEC61A1_−_127771295.23-P1_00: sgRNA targeting SEC61A1, GGCACTGACGTGTCTCTCGG, SEQ ID NO: 83 (listed as DNA, chemistry not fully specified) | 2151 | 2025 | 11429
14 | non-targeting_00028: non-targeting negative control sgRNA, GGTGGCCTTTGCAATTGGCG, SEQ ID NO: 162 (listed as DNA, chemistry not fully specified) [reference compound] | 20289 | 35652 | 8871
15 | DUT_+_48624411.23-P1P2_07: sgRNA targeting DUT, GCGAGCGAGGAGCCCACCGG, SEQ ID NO: 113 (listed as DNA, chemistry not fully specified) | 1509 | 1157 | 4601
16 | GNB2L1_+_180670873.23-P1P2_02: sgRNA targeting GNB2L1, GTGCAAGACGGCGGCAGGAG, SEQ ID NO: 59 (listed as DNA, chemistry not fully specified) | 6216 | 7618 | 3839
17 | RPL9_+_39460483.23-P1P2_07: sgRNA targeting RPL9, GGATGTTTCTGCGCTCGTGG, SEQ ID NO: 54 (listed as DNA, chemistry not fully specified) | 7867 | 9339 | 7336
18 | HSPE1_+_198365089.23-P1P2_03: sgRNA targeting HSPE1, GGTGACTCGCAGTCCGGCCC, SEQ ID NO: 66 (listed as DNA, chemistry not fully specified) | 3034 | 2279 | 7473
19 | RAN_+_131356438.23-P1P2_00: sgRNA targeting RAN, GGCGGTCGCTGCGCTTAGGG, SEQ ID NO: 69 (listed as DNA, chemistry not fully specified) | 7598 | 8936 | 5444
20 | DBR1_+_137893744.23-P1P2_01: sgRNA targeting DBR1, GATTGCAGGAGTCTACACCC, SEQ ID NO: 79 (listed as DNA, chemistry not fully specified) | 5512 | 1824 | 9446
21 | GNB2L1_+_180670873.23-P1P2_08: sgRNA targeting GNB2L1, GTGCAAGGTGGCGGCAGGAG, SEQ ID NO: 56 (listed as DNA, chemistry not fully specified) | 25247 | 17083 | 24451
22 | POLR1D_+_28196016.23-P1_07: sgRNA targeting POLR1D, GGGAAGCAAGGAGCGACCGA, SEQ ID NO: 77 (listed as DNA, chemistry not fully specified) | 16283 | 16285 | 15589
